Reference: ChEMBL document CHEMBL5634152, “The discovery of water-soluble indazole derivatives as potent microtubule polymerization inhibitors” (Eur J Med Chem, 2023)
Converted amounts (≈) assume the structure as drawn. Blank lines part the entries; values can stand above or below the compound they belong to. The source made the active and inactive calls. No cut-off for these calls is given here.

Experiments:
A549 [1] = experiment: cells; conditions: Homo sapiens
Description: Antiproliferative activity against human A549 cells assessed as cell growth inhibition incubated for72 hrs by MTT assay

Huh-7 = experiment: cells; conditions: Homo sapiens
Description: Antiproliferative activity against human Huh-7 cells assessed as cell growth inhibition incubated for72 hrs by MTT assay

T-24 = experiment: cells; conditions: Homo sapiens
Description: Antiproliferative activity against human T-24 cells assessed as cell growth inhibition incubated for72 hrs by MTT assay

A549/TR = experiment: Antiproliferative activity against human A549/Taxol cells assessed as cell growth inhibition incubated for72 hrs by MTT assay; type: functional, cell-based
[2] = Resistance index, ratio of IC50 for human A549/Taxol cells to IC50 for human A549 cells; type: functional
[3] = Aqueous solubility of compound in pH 7.4 at 10 mg/ml by HPLC analysis; type: physicochemical; conditions: buffer
[4] = Lipophilicity, logP of compound in n-octanol-water at 5 mg/ml incubated for 8 hrs by HPLC analysis; type: physicochemical
Sus scrofa = species on record: Sus scrofa; experiment: Inhibition of pig brain tubulin polymerization by absorbance based assay; type: tissue-based; conditions: dose <= 6.0 µM
[5] = Inhibition of pig brain tubulin polymerization measured after 20 mins by absorbance based assay; type: tissue-based, Sus scrofa
Tubulin (Homo sapiens) [6] = target: T1, Tubulin (Homo sapiens) (UniProt P68371+Q9H4B7+P0DPH7+P68366+Q13509+Q71U36+P04350+Q3ZCM7+P07437+P68363+Q9BQE3+Q6PEY2+Q13885+Q9BVA1+Q9BUF5); experiment: Inhibition of tubulin polymerization in human A549 cells assessed as disruption of microtubule aggregation incubated for 24 hrs by immunofluorescence based analysis; type: cell-based; conditions: dose 12.5-25 nM
Tubulin (Homo sapiens) [7] = target: T1, Tubulin (Homo sapiens); experiment: Inhibition of tubulin polymerization in human A549 cells assessed as decrease in spindle formation incubated for 24 hrs by immunofluorescence based analysis; type: cell-based; conditions: dose 12.5-25 nM
Tubulin (Homo sapiens) [8] = target: T1, Tubulin (Homo sapiens); experiment: Binding affinity to tubulin polymerization in human A549 cells assessed as N,N'-ethylene- bis(iodoacetamide)/beta-tubulin adduct formation at 5 uM incubated for 2 hrs by chemiluminescence based assay; type: cell-based
Tubulin (Homo sapiens) [9] = target: T1, Tubulin (Homo sapiens); experiment: Binding affinity to tubulin polymerization at colchicine-binding site in human A549 cells assessed as N,N'-ethylene- bis(iodoacetamide)/beta-tubulin adduct formation incubated for 2 hrs by chemiluminescence based assay; type: cell-based; conditions: dose 0.1-25 µM
A549 [10] = experiment: Induction of cell cycle arrest at G1 phase in human A549 cells at 12.5 nM incubated for 24 hrs by flow cytometry (reference value: 71.30 %); type: functional
A549 [11] = experiment: Induction of cell cycle arrest at S phase in human A549 cells at 12.5 nM incubated for 24 hrs by flow cytometry (reference value: 24.86 %); type: functional
A549 [12] = experiment: Induction of cell cycle arrest at G2/M phase in human A549 cells at 12.5 nM incubated for 24 hrs by flow cytometry (reference value: 3.84 %); type: functional
A549 [13] = experiment: Induction of cell cycle arrest at G1 phase in human A549 cells at 25 nM incubated for 24 hrs by flow cytometry (reference value: 71.30 %); type: functional
A549 [14] = experiment: Induction of cell cycle arrest at S phase in human A549 cells at 25 nM incubated for 24 hrs by flow cytometry (reference value: 24.86 %); type: functional
A549 [15] = experiment: Induction of cell cycle arrest at G2/M phase in human A549 cells at 25 nM incubated for 24 hrs by flow cytometry (reference value: 3.84 %); type: functional
A549 [16] = experiment: Induction of apoptosis in human A549 cells assessed as viable cells at 12.5 nM incubated for 24 hrs by Annexin V/7-Aad staining based flow cytometry (reference value: 93.63 %); type: functional; conditions: read-out: Activity
A549 [17] = experiment: Induction of apoptosis in human A549 cells assessed as early apoptotic cells at 12.5 nM incubated for 24 hrs by Annexin V/7-Aad staining based flow cytometry (reference value: 1.05 %); type: functional
A549 [18] = experiment: Induction of apoptosis in human A549 cells assessed as late apoptotic cells at 12.5 nM incubated for 24 hrs by Annexin V/7-Aad staining based flow cytometry (reference value: 3.20 %); type: functional
A549 [19] = experiment: Induction of apoptosis in human A549 cells assessed as necrotic cells at 12.5 nM incubated for 24 hrs by Annexin V/7-Aad staining based flow cytometry (reference value: 2.13 %); type: functional
A549 [20] = experiment: Induction of apoptosis in human A549 cells assessed as viable cells at 25 nM incubated for 24 hrs by Annexin V/7-Aad staining based flow cytometry (reference value: 93.63 %); type: functional; conditions: read-out: Activity
A549 [21] = experiment: Induction of apoptosis in human A549 cells assessed as early apoptotic cells at 25 nM incubated for 24 hrs by Annexin V/7-Aad staining based flow cytometry (reference value: 1.05 %); type: functional
A549 [22] = experiment: Induction of apoptosis in human A549 cells assessed as late apoptotic cells at 25 nM incubated for 24 hrs by Annexin V/7-Aad staining based flow cytometry (reference value: 3.20 %); type: functional
A549 [23] = experiment: Induction of apoptosis in human A549 cells assessed as necrotic cells at 25 nM incubated for 24 hrs by Annexin V/7-Aad staining based flow cytometry (reference value: 2.13 %); type: functional
A549 [24] = experiment: Induction of apoptosis in human A549 cells assessed as viable cells at 50 nM incubated for 24 hrs by Annexin V/7-Aad staining based flow cytometry (reference value: 93.63 %); type: functional; conditions: read-out: Activity
A549 [25] = experiment: Induction of apoptosis in human A549 cells assessed as early apoptotic cells at 50 nM incubated for 24 hrs by Annexin V/7-Aad staining based flow cytometry (reference value: 1.05 %); type: functional
A549 [26] = experiment: Induction of apoptosis in human A549 cells assessed as late apoptotic cells at 50 nM incubated for 24 hrs by Annexin V/7-Aad staining based flow cytometry (reference value: 3.20 %); type: functional
A549 [27] = experiment: Induction of apoptosis in human A549 cells assessed as necrotic cells at 50 nM incubated for 24 hrs by Annexin V/7-Aad staining based flow cytometry (reference value: 2.13 %); type: functional
A549 [28] = experiment: Inhibition of cell migration in human A549 cells at 12.5 nM incubated for 24 hrs by wound healing assay relative to control; type: functional
A549 [29] = experiment: Inhibition of cell migration in human A549 cells at 25 nM incubated for 24 hrs by wound healing assay relative to control; type: functional
A549 [30] = experiment: Inhibition of cell migration in human A549 cells at 50 nM incubated for 24 hrs by wound healing assay relative to control; type: functional
A549 [31] = experiment: Antitumor activity against human A549 cells xenografted in Balb/c nude mouse assessed as tumor growth inhibition at 25 mg/kg, IG qd for 21 days relative to control; type: functional; conditions: A549, po, 504 h, time 21 day, read-out: TGI
[32] = Toxicity in Balb/c nude mouse xenografted with human A549 cells assessed as body weight loss at 25 mg/kg, IG qd for 21 days; type: organism-based; conditions: in vivo, po, 504 h, time 21 day
[33] = Toxicity in Balb/c nude mouse xenografted with human A549 cells assessed as damage in liver at 25 mg/kg, IG qd for 21 days by H and E staining based analysis; type: organism-based; conditions: in vivo, po, 504 h, time 21 day
[34] = Toxicity in Balb/c nude mouse xenografted with human A549 cells assessed as damage in kidney at 25 mg/kg, IG qd for 21 days by H and E staining based analysis; type: organism-based; conditions: in vivo, po, 504 h, time 21 day
[35] = Toxicity in Balb/c nude mouse xenografted with human A549 cells assessed as damage in spleen at 25 mg/kg, IG qd for 21 days by H and E staining based analysis; type: organism-based; conditions: in vivo, po, 504 h, time 21 day

IC50 (A549 [1]): 490 nM
IC50 (Huh-7): 110 nM
IC50 (T-24): 280 nM
SMILES: COc1ccc(-c2ccc3c(C)nn(-c4cc(OC)c(OC)c(OC)c4)c3c2)cc1

IC50 (A549 [1]): 98 nM
IC50 (Huh-7): 79 nM
IC50 (T-24): 110 nM
SMILES: COc1cc(-n2ncc3ccc(-c4ccc5c(c4)CCO5)cc32)cc(OC)c1OC

IC50 (A549 [1]): 90 nM
IC50 (Huh-7): 110 nM
IC50 (T-24): 270 nM
SMILES: COc1cc(-n2ncc3ccc(-c4ccc(F)cc4)cc32)cc(OC)c1OC

IC50 (A549 [1]): > 25000 nM
IC50 (Huh-7): > 25000 nM
IC50 (T-24): > 25000 nM
SMILES: COc1cc(-c2ccc3cnn(-c4ccc(C)cc4)c3c2)cc(OC)c1OC

IC50 (A549/TR): 33 nM
solubility [3]: 149 µg/mL
logP at 8 h [4]: 1.8
IC50 [5]: 1750 nM
inhibition (Tubulin (Homo sapiens) [6]): Dose-Dependent Effect
inhibition (Tubulin (Homo sapiens) [7]): Dose-Dependent Effect
Activity (Tubulin (Homo sapiens) [8]): Active
Activity (Tubulin (Homo sapiens) [9]): Dose-Dependent Effect
IC50 (A549 [1]): 27 nM
IC50 (Huh-7): 30 nM
IC50 (T-24): 46 nM
SMILES: COc1cc(-n2ncc3ccc(-c4ccc(C)nc4)cc32)cc(OC)c1OC.Cl
Ratio IC50 [2]: 1.2
inhibition (Sus scrofa): Dose-Dependent Effect
Activity (A549 [10]): 68.78%
Activity (A549 [11]): 18.11%
Activity (A549 [12]): 13.1%
Activity (A549 [13]): 3.04%
Activity (A549 [14]): 7.88%
Activity (A549 [15]): 89.07%
viability at 0.0125 µM (A549 [16]): 92.3%
Activity (A549 [17]): 3.02%
Activity (A549 [18]): 3.28%
Activity (A549 [19]): 1.44%
viability at 0.025 µM (A549 [20]): 69.1%
Activity (A549 [21]): 16.41%
Activity (A549 [22]): 12.23%
Activity (A549 [23]): 2.26%
viability at 0.05 µM (A549 [24]): 56.6%
Activity (A549 [25]): 26.53%
Activity (A549 [26]): 15.65%
Activity (A549 [27]): 1.19%
inhibition at 0.0125 µM (A549 [28]): 32.3%
inhibition at 0.025 µM (A549 [29]): 52.2%
inhibition at 0.05 µM (A549 [30]): 83.9%
inhibition in vivo at 25 mg/kg (A549 [31]): 64.1%
Activity [32]: Non-Toxic
Activity [33]: Non-Toxic
Activity [34]: Non-Toxic
Activity [35]: Non-Toxic

IC50 (A549 [1]): 1510 nM
IC50 (Huh-7): 1060 nM
IC50 (T-24): 2230 nM
SMILES: COc1ccc(-c2ccc3c(C)nn(-c4cc(OC)c(OC)c(OC)c4)c3c2)cn1

IC50 (A549/TR): 25 nM
solubility ([3]; read-out: solubility): 5.09 µg/mL (≈ 12.7 µM)
logP at 8 h [4]: 3.1
IC50 (A549 [1]): 25 nM
IC50 (Huh-7): 28 nM
IC50 (T-24): 30 nM
SMILES: COc1cc(-n2ncc3ccc(-c4cccc5[nH]ccc45)cc32)cc(OC)c1OC
Ratio IC50 [2]: 1

IC50 (A549 [1]): 5300 nM
IC50 (Huh-7): 1450 nM
IC50 (T-24): 4820 nM
SMILES: COc1cc(-c2ccc3c(C)nn(-c4ccc5c(c4)CCO5)c3c2)cc(OC)c1OC

IC50 (A549 [1]): > 25000 nM
IC50 (Huh-7): > 25000 nM
IC50 (T-24): > 25000 nM
SMILES: COc1cc(-c2ccc3c(C)nn(-c4ccc(C)cc4)c3c2)cc(OC)c1OC

IC50 (A549 [1]): > 25000 nM
IC50 (Huh-7): > 25000 nM
IC50 (T-24): > 25000 nM
SMILES: COc1ccc(-n2nc(C)c3ccc(-c4cc(OC)c(OC)c(OC)c4)cc32)cn1

IC50 (A549 [1]): > 25000 nM
IC50 (Huh-7): > 25000 nM
IC50 (T-24): > 25000 nM
SMILES: COc1ccc(-n2ncc3ccc(-c4cc(OC)c(OC)c(OC)c4)cc32)cc1

IC50 (A549 [1]): 63 nM
IC50 (Huh-7): 73 nM
IC50 (T-24): 120 nM
SMILES: COc1cc(-n2ncc3ccc(-c4ccc5c(ccn5C)c4)cc32)cc(OC)c1OC

IC50 (A549 [1]): 190 nM
IC50 (Huh-7): 120 nM
IC50 (T-24): 140 nM
SMILES: COc1cc(-n2nc(C)c3ccc(-c4ccc(C)cc4)cc32)cc(OC)c1OC

IC50 (A549 [1]): > 25000 nM
IC50 (Huh-7): > 25000 nM
IC50 (T-24): > 25000 nM
SMILES: COc1ccc(-n2nc(C)c3ccc(-c4cc(OC)c(OC)c(OC)c4)cc32)cc1
